# Read-outs that look alike come from different tables or passages of the source.
# Columns and labels:
# [1] = rats; for Molar percentage of the excreted metabolites in 24-h urine (% of infused [D3]bromotyrosine) / Total amounts (nmole) excreted in 24-h urine: intraperitoneal injection of 500 nmole [D3]bromotyrosine
# Description: ^13C-Labeled internal standard (5 ng) was added to 20 µl of rat urine and diluted to 1 ml of total volume with 0.1 % (v/v) TFA/water (pH 5.0). The samples were extracted using LC18 reverse phase column, as described above. Bromotyrosine and tyrosine were derivatized with ethyl heptafluorobutyrate and silylated with tert-butyldimethylsilyl, as described, [17], [18]. Derivatized samples were dried under nitrogen, and redissolved in 20 µl of n-undecane. Samples were applied to a GC equipped with a 15-m DB-1701 (J&W Scientific, Folsom, CA) capillary column (0.25-mm internal diameter, […]), interfaced with a mass spectrometer (Trio 1000; Fisons Instruments, Beverly, MA). The ion source and interface temperatures were set at 200 and 320 °C, respectively. Samples were analyzed in negative-ion chemical ionization mode with ammonia as the reagent gas, using 1 µl of each sample for injection. The initial column temperature was maintained at 150 °C for 1 min increasing to 300 °C at 20 °C/min. Ions were monitored at 489, 492, and 498 mass units for authentic, [D3] and [^13C9]bromotyrosine, respectively (Table 1). For measurement of tyrosine, samples were monitored at 407, 410 and 415 m/z for authentic, [D3]tyrosine and [^13C9]tyrosine, respectively. Concentrations were calculated by ratio to known ^13C9-labeled internal standards.
# ^13C-Labeled internal standard (5 ng) was added to 20 µl of rat urine and diluted to 1 ml with 0.1 % (v/v) TFA/water (pH 5.0). The samples were extracted using LC18 reverse-phase column as described above. The samples were derivatized to the pentafluorobenzyl ester by the addition of 20 µl of di-isopropyl ethylamine in acetonitrile and […] of 10 % (v/v) pentafluorobenzyl bromide in acetonitrile for 1 h at room temperature (21–23 °C), dried under nitrogen, and redissolved in […] of n-undecane for GC/MS analysis, [14]. The GC/MS set up was as described above, and ions were monitored at 409, 412, and 417 mass units for authentic, [D3] and [^13C8]bromo-HPA, respectively, with single-ion monitoring (Table 1). For measuring HPA, samples were monitored at 331, 334, and 339 mass units for authentic, [D3] and [^13C8]HPA, respectively. The concentrations were calculated from the known ^13C8-labeled internal standards.
# Male Sprague-Dawley rats (n=3 in each group) were given a single intraperitoneal injection of [D3]bromotyrosine (0.50 µmol). The animals were then transferred to standard metabolic cages, and urine samples were collected for 24 h. The levels of deuterated bromotyrosine, tyrosine, bromo-HPA, and HPA were measured in the collected urine samples, as described above.
# [2] = set-up: method as in PMID 17686770; details: deuterium-labeled metabolites after infusion of deuterium-labeled chlorotyrosine ref 9; cited from earlier work
# [3] = target: T1, Iodotyrosine dehalogenase 1 (DEHAL1) (Homo sapiens, UniProt Q6PHW0); assay: Dehalogenation of halogenated tyrosines as substrates of DEHAL1 (HPLC); format: biochemical; details: for Formation of mono-halogenated tyrosine as product of de-halogenation of the di-halogenated substrate by DEHAL1: di-iodotyrosine or di-bromotyrosine 1 μM as substrate; for Formation of mono-halogenated tyrosine as product of de-halogenation of the di-halogenated substrate by DEHAL1 / Substrate converted by DEHAL1: 60 min at 37 °C; for Substrate converted by DEHAL1: substrate 1 μM, NADPH 100 μM, dithiothreitol 10 mM
# T1 construct: made in house; host or cells: HEK293 cells transfected with DEHAL1 cDNA in pcDNA3.1; used as cell lysate
# T1 sequence (Q6PHW0 1-289): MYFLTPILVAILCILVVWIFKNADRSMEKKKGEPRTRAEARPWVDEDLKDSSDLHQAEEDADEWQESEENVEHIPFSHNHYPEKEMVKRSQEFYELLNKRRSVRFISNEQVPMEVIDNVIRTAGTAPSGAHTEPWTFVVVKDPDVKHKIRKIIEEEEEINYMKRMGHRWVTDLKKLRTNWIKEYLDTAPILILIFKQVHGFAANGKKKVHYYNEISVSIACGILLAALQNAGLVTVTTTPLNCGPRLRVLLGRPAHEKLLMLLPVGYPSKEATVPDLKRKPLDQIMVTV
# Description: (§1) Iodotyrosine dehalogenase 1 (DEHAL1) was obtained from HEK293 cells transfected with DEHAL1 cDNA, using a pcDNA3.1 expression vector [9], [19]. To determine whether bromotyrosine, di-bromotyrosine or bromo-HPA interact with iodotyrosine dehalogenase, deiodinase activity was measured based on radioiodide formation from [125I]iodotyrosine. Incubation mixtures contained [125I]iodotyrosine (∼100,000 cpm mixed with 0.1 μM unlabeled iodotyrosine), DEHAL1 enzyme, and varying amounts of iodotyrosine, bromotyrosine, di-bromotyrosine, bromp-HPA and tyrosine (0.01–100 μM final concentration) in 100 μl of PBS containing NADPH (100 μM), EDTA (2 mM), and dithiothreitol (10 mM), [19]. Mixtures were incubated in duplicate for 60 min at 37 °C, and the reactions were stopped by addition of 0.9 ml of 10% acetic acid on ice. The radioiodide in the mixture was separated from the remaining [125I]iodotyrosine with ion exchange chromatography on Dowex columns. The columns were washed with 10 % acetic acid and eluted with 8 ml of 1 mM ammonia solution. Blank incubations without enzyme were used to correct for non-enzymatic deiodination. To determine whether bromotyrosine or di-bromotyrosine could act as a substrate of DEHAL1, the brominated or iodinated tyrosine derivatives (1 μM) were incubated with DEHAL1 in 100 μl of PBS containing NADPH (100 μM), EDTA (2 mM), and dithiothreitol (10 mM). Mixtures were then incubated in duplicate for 60 min at 37 °C, and the reaction was stopped by addition of 1 ml of 10 % acetic acid on ice. Substrate levels were measured using HPLC as described. Cell lysates from HEK293 cells transfected with empty pcDNA3.1 plasmid were used as control. In experiments where di-bromotyrosine, or di-iodotyrosine was used as substrate, concentrations of mono-bromotyrosine and mono-iodotyrosine were measured as a product of de-halogenation.
# [4] = Incubation of bromo-HPA with rat liver homogenates; format: in vitro ADME; details: data not shown
# [5] = target: T1, Iodotyrosine dehalogenase 1 (DEHAL1); assay: Inhibition of DEHAL1 deiodinase activity (radioiodide formation from [125I]iodotyrosine); format: biochemical; details: 0.01–100 μM, 60 min at 37 °C, NADPH, dithiothreitol
# Description: as §1
# [6] = target: T1, Iodotyrosine dehalogenase 1 (DEHAL1); set-up: method as in PMID 17686770; details: previous report ref 9; cited from earlier work
# [7] = Identification of urinary metabolites of di-bromotyrosine in vivo (full scan GC/MS); set-up: species or system Sprague-Dawley rats; details: rats, intraperitoneal 30 µmol, 24 h urine, compared with tyrosine injected animals
# Description: A similar method used by Ohshima et al. was used for identification of urinary metabolites of di-bromotyrosine. […] Urine was collected in metabolic cages for 24 h. Urine samples were acidified to pH 1.0 with HCl and extracted with an equivalent volume of ethyl acetate.
# [8] = system: HepG2 cells; details: 24 h with 250 nmoles [D3]bromotyrosine (25 µM, 10 ml)
# Description: HepG2 cells (ECACC, Wiltshire, UK) were maintained in MEM (minimum Eagle's medium) supplemented with 10% fetal calf serum. Monolayer HepG2 cells were plated in 175 cm^3 vented tissue culture flasks until 70% confluent, when they were incubated with [D3]bromotyrosine (final concentration 25 µM). 24 h after incubation with [D3]bromotyrosine, cells were washed two times with PBS and were detached from the flask using a cell scraper. Detached cells were washed and re-suspended in 2 ml of PBS. Cell suspensions were subjected to protein precipitation by adding 1 ml of ice-cold chloroform/methanol (2:1, v/v) solution. After centrifugation (1000×g for 20 min), protein precipitates were washed with methanol and lyophilized under vacuum for assessment of protein-bound [D3]bromotyrosine and [D3]tyrosine as described [9], [17], [18]. […] The samples were then derivatized with ethyl heptafluorobutyrate and silylated with tert-butyldimethylsilyl, and monitored for ion masses of 492, 498, 410, 415 for [D3]bromotyrosine, [^13C9]bromotyrosine, [D3]tyrosine and [^13C9]tyrosine, respectively (Table 1) using negative-ion chemical ionization GC/MS [9], [17], [18]. […] All data are expressed as mean±standard error.
# [9] = Endogenous bromination of HPA: urine monitoring after intraperitoneal [D6]HPA; format: in vivo; details: healthy rats, intraperitoneal injection of [D6]HPA, data not shown
# Text: It is not known, whether or not, bromo-HPA is exclusively derived from the metabolism of bromotyrosine. […] Such reaction may occur for bromotyrosine as well, and needs to be explored in future investigations. Likewise, we previously reported that nitro-HPA is not exclusively derived from nitrotyrosine metabolism, and it is mainly formed by nitration of HPA in both humans and rats, [29]. To determine whether or not bromo-HPA could be formed by endogenous bromination of HPA in healthy rats, deuterium-labeled HPA ([D6]HPA) was synthesized and injected into healthy rats as described. The formation of deuterated bromo-HPA was then monitored in urine samples.
compound,measurement,setting,value
"O=C(O)Cc1ccc(O)cc1 [HPA, 4-hydroxyphenylacetic acid]",Urinary excretion rate relative to un-metabolized bromotyrosine,"[1]; deuterium-labeled metabolites, 500 nmole [D3]bromotyrosine",10.7 fold
same,Urinary excretion rate relative to un-metabolized chlorotyrosine,[2],35.6 fold
"[2H]c1cc(O)c([2H])c([2H])c1CC(=O)O [[D3]HPA, [D3]4-hydroxyphenylacetic acid]",Molar percentage of the excreted metabolites in 24-h urine (% of infused [D3]bromotyrosine),[1],1.33±0.26%
same,Total amounts (nmole) excreted in 24-h urine,[1],6.66 ± 1.33 nmol
same,Molar percentage of the excreted metabolites in 24-h urine (% of infused [D3]bromotyrosine),[1]; listed as [D3]4-hydroxyphenylacetic acid,~ 1.3%
"O=C(O)Cc1ccc(O)c(Br)c1 [bromo-HPA, 3-bromo-4-hydroxyphenylacetic acid]",Formation of de-brominated products on incubation with DEHAL1,[3]; data not shown,not associated with formation of de-brominated products
same,Formation of de-brominated products on incubation with rat liver homogenates,[4],not associated with formation of de-brominated products
same,Inhibition of DEHAL1-induced deiodinase activity,[5],Neither tyrosine nor bromo-HPA showed the ability to inhibit deiodination
"N[C@@H](Cc1ccc(O)c(Br)c1)C(=O)O [bromotyrosine, 3-bromotyrosine]",Formation of mono-halogenated tyrosine as product of de-halogenation of the di-halogenated substrate by DEHAL1,[3],3%
same,Substrate converted by DEHAL1,[3],18%
same,Inhibition of DEHAL1-induced deiodinase activity,[5],could inhibit DEHAL1-induced deiodinase activity in a concentration-dependent manner
"O=C(O)Cc1ccc(O)c(Cl)c1 [chloro-HPA, 3-chloro-4-hydroxyphenylacetic acid]",Urinary excretion rate relative to un-metabolized chlorotyrosine,[2],3.3 fold
"N[C@@H](Cc1ccc(O)c(Cl)c1)C(=O)O [chlorotyrosine, 3-chlorotyrosine]",De-chlorination by DEHAL1 in vitro,[6],unable to show a significant de-chlorination
"N[C@@H](Cc1cc(Br)c(O)c(Br)c1)C(=O)O [di-bromotyrosine, 3,5-di-bromotyrosine]",Urinary metabolites identified,[7],di-bromo-HPA and mono-bromo-HPA
same,Substrate converted by DEHAL1,[3],4%
same,Inhibition of DEHAL1-induced deiodinase activity,[5],could inhibit DEHAL1-induced deiodinase activity in a concentration-dependent manner
"N[C@@H](Cc1cc(I)c(O)c(I)c1)C(=O)O [di-iodotyrosine, reference compound]",Substrate converted by DEHAL1,[3],70%
"N[C@@H](Cc1ccc(O)c(I)c1)C(=O)O [iodotyrosine, reference compound]",Formation of mono-halogenated tyrosine as product of de-halogenation of the di-halogenated substrate by DEHAL1,[3],7%
same,Substrate converted by DEHAL1,[3],83%
N[C@@H](Cc1ccc(O)cc1)C(=O)O [tyrosine],Inhibition of DEHAL1-induced deiodinase activity,[5],Neither tyrosine nor bromo-HPA showed the ability to inhibit deiodination
[D3]tyrosine,[D3]tyrosine detectable in cellular proteins,[8],6.68 ± 0.52 nmol
same,Molar percentage of the excreted metabolites in 24-h urine (% of infused [D3]bromotyrosine),[1],Undetectable
same,Total amounts (nmole) excreted in 24-h urine,[1],Undetectable
[D5]bromo-HPA,Detection of deuterated bromo-HPA in urine,[9],unable to detect
deuterated 3-bromo-4-hydroxyphenylacetic acid [[D3]Bromo-HPA],Molar percentage of the excreted metabolites in 24-h urine (% of infused [D3]bromotyrosine),[1],0.43±0.04%
same,Total amounts (nmole) excreted in 24-h urine,[1],2.15 ± 0.21 nmol
same,Molar percentage of the excreted metabolites in 24-h urine (% of infused [D3]bromotyrosine),[1]; listed as [D3]bromo-HPA,0.43±0.04%

# Source: publication PMC4708624, “The metabolism and de-bromination of bromotyrosine in vivo” (Free Radical Biology & Medicine, 2016)
